This is an account of results in US20180098954A1, “AMELIORATING AGENT FOR EXERCISE-INDUCED GASTROINTESTINAL DISORDERS” (AJINOMOTO CO., INC., priority 2015, published 2018).

Assay [1] relates to CD2F1 mice. The experiment in a line: feed intake after totally exhausting treadmill exercise for 3 consecutive days. It counts as in vivo. The note with it: male CD2F1 mice; normal diet added with cystine (2%) in place of casein for 8 days; after totally exhausting exercise for 3 consecutive days; versus exercise group; P<0.05 (FIG. 5). The text has this:
Athletes are known to experience gastrointestinal upset and loss of appetite in scenes where intense training such as a camp training and the like are repeated. Therefore, the improving effect of cystine on exercise-induced decrease in appetite was studied by the following test. 6-Week-old male CD2F1 mice (Charles River Laboratories Japan, Inc.) were divided into 3 groups (non-exercise group, exercise group, and exercise+2% cystine group), and a normal diet (AIN-93G composition) was given to non-exercise group and exercise group, and a normal diet (AIN-93G composition) added with cystine (2%) in place of casein was given to exercise+2% cystine group, each for 8 days. Thereafter, exercise group and exercise+2% cystine group were made to run in a treadmill to total exhaustion for 3 consecutive days, and non-exercise group was not allowed to exercise (see FIG. 4). While exercise group and exercise+2% cystine group ran, non-exercise group was fasted and deprived of water. A new feed was given every day after completion of the totally exhausting exercise, recovered the next day and the amount of the remaining feed was measured, from which feed intake was calculated.

For assay [2], the system named is CD2F1 mice. Put plainly: gastrointestinal tract permeability of FD4 (FITC-dextran) after 4 hr running in a hamster wheel. The note with it: male CD2F1 mice, FD4 500 mg/kg orally. It counts as in vivo. From the text: It is known that high molecular weight substances that are not usually absorbed from the gastrointestinal tract penetrate the intestine and enter the blood when the barrier function of the gastrointestinal tract is declined (FIG. 1). Therefore, the improving effect of cystine on exercise-induced decline in gastrointestinal tract barrier function was studied by the following test. […] According to the method described in Cani et al., Gut 2009, 58(8) : 1091-1103, which is incorporated herein by reference in its entirety, FD4 concentration that leaked into the blood from the gastrointestinal tract was calculated by measuring the fluorescence intensity in the blood, based on which the gastrointestinal tract permeability of FD4 was evaluated (see FIG. 2). To be specific, blood was collected from the mice under isoflurane anesthesia, the collected blood was centrifuged to give plasma, the obtained plasma was diluted 2-fold with phosphate buffer, and fluorescence intensity was measured under the conditions of excitation wavelength: 485 nm, detection wavelength: 535 nm (measurement device SPECTRA MAX GEMINI EM Molecular Devices Japan). […] After completion of running, the gastrointestinal tract permeability of FD4 was evaluated in the same manner as in Example 1.

For the molecule `N[C@@H](CSSC[C@H](N)C(=O)O)C(=O)O` [cystine], the “relative feed intake after exercise (Pre run as 100%)” value with CD2F1 mice [1] was “significantly high as compared to the exercise group”. For the same molecule, the “FD4 concentration in blood (gastrointestinal tract permeability), compared to Gln+Ex” value in the assay on CD2F1 mice [2] (cystine (2%) diet versus glutamine (2%) diet for 7 days, blood after 1 hr (FIG. 3)) is “lower FD4 concentration in blood as compared to the group (Gln+Ex)”. Moreover, the “FD4 concentration in blood (gastrointestinal tract permeability), compared to Ex” value with CD2F1 mice [2] (normal diet added with cystine (2%) for 7 days, blood after 1 hr, versus exercise group on normal diet, P<0.05 (FIG. 3)) is reported as “lower FD4 concentration in blood as compared to Ex”.
